Data: US20150342954A1, “2-BENZYL, 3-(PYRIMIDIN-2-YL) SUBSTITUTED PYRAZOLES USEFUL AS SGC STIMULATORS” (IRONWOOD PHARMACEUTICALS, INC., priority 2011, published 2015)
Read-outs that look alike come from different tables or passages of the source.

Legend:
[1] = target: T1, Human soluble guanylate cyclase enzyme (hsGC) (Homo sapiens, UniProt Q02108+Q02153); test: Purified human sGC enzyme synergy assay in the presence of 1 μM sodium nitroprusside (SNP); format: biochemical; conditions: compound at 30 μM, presence of 1 μM SNP; Table 5A
T1 construct: purchased Enzo Inc. ALX-201-177
T1 sequence (Q02153 1-619): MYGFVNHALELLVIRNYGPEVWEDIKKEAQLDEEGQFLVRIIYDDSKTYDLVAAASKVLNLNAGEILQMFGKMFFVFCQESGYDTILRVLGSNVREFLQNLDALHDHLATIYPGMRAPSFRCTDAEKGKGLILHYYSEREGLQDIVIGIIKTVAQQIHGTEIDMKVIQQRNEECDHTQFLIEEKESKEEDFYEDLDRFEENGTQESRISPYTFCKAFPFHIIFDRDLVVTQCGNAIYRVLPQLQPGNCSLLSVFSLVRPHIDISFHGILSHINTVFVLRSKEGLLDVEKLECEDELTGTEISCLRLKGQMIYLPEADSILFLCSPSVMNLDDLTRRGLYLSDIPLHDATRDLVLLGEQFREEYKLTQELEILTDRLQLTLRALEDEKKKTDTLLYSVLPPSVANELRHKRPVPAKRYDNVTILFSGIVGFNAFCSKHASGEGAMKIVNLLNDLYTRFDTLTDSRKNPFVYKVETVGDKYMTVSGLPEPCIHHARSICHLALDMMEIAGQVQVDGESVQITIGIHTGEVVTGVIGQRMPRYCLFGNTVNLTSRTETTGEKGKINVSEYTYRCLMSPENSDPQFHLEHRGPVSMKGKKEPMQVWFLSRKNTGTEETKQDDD
T1 sequence (Q02108 1-690): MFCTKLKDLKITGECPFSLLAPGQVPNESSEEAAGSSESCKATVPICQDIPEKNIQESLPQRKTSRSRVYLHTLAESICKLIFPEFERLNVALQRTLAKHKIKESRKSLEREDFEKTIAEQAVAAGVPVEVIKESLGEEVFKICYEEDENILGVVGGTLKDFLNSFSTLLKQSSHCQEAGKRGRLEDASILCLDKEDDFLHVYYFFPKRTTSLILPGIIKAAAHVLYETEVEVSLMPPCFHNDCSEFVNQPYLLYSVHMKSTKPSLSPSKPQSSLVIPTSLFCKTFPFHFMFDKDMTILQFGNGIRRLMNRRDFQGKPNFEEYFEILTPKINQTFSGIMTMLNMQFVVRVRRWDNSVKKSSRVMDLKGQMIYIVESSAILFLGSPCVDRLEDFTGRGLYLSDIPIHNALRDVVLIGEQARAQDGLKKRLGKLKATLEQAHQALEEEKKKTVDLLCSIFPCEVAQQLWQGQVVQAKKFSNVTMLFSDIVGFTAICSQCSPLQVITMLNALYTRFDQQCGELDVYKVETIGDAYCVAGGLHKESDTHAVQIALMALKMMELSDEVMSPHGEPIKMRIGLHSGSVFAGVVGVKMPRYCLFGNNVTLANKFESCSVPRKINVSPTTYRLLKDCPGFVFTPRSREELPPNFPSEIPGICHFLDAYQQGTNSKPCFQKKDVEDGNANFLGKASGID
Experimental: (§1) Human soluble guanylate cyclase enzyme (hsGC) obtained from Enzo Inc. (P/N: ALX-201-177) was used to evaluate the activity of test compounds. The assay reactions contained 0.1 M Tris (pH 8.0), 0.5 mg/mL BSA (pH 8.0), 2 mM DTT, 2 mM MgCl2, 300 μM GTP, 1 mM 3-isobutyl-1-methylxanthine (IBMX) and 5 ng human soluble guanylate cyclase enzyme. Test compounds in DMSO were then added (2 μL, 10 or 30 μM final concentration) and incubated (200 μL, 96-well plate format) at 37° C. for 30 minutes. The controls were carried out using 2 μL DMSO. After the 30 minute incubation, the reaction was stopped with the addition of 200 μl of cold methanol. The plate was then centrifuged at 3,200 rpm for 10 minutes at room temperature. Supernatants (200 μL) were collected and transferred to a new 96 well plate for analysis.
(§2) An 8 point cGMP (Sigma-Aldrich P/N: G6129) standard curve was prepared in assay buffer ranging from 0.156-20 μM. Samples for the cGMP standard curve were then diluted with an equal volume of methanol resulting in final cGMP concentrations of 0.078-10 μM.
(§3) The cGMP standard curve was generated using GraphPad Prism Software.
(§4) Calculations: Specific Activity was determined by the amount of cGMP formed (nmoles) per mg of sGC per min. Enzyme “fold-change” was calculated by dividing Specific Activity for test compounds by Specific Activity of DMSO controls.
Biological Measurement by the Purified Human sGC Enzyme Synergy Performed in the Presence of Sodium Nitroprusside (SNP), a Nitric Oxide Donor
Enzyme assays were performed as described above, but was done in the absence or presence of 1 μM sodium nitroprusside (SNP).

[2] = target: T1, Human soluble guanylate cyclase enzyme (hsGC); test: Purified human sGC enzyme activity assay (without SNP); format: biochemical; conditions: compound at 30 μM, absence of SNP; fold over DMSO control; Table 5A
Experimental: Biological Activity Measurements by the Purified Human sGC Enzyme Activity Assay
as §1, §2, §3, §4

[3] = target: T2, soluble guanylate cyclase (sGC) (Homo sapiens, UniProt Q02108+Q02153); test: sGC-HEK-cGMP assay (run with SNP incubation); format: cell-based; conditions: for Emax: 10 μM SNP, 100% = 30 μM BAY 41-2272 with 10 μM SNP, read-out: HEK assay Emax-unconstrained (Percent); for HEK MEC-10: concentration that would elicit 10% of the Emax in the presence of 10 μM SNP; for EC50: in the presence of 10 μM SNP
T2 construct: endogenously expressing soluble guanylate cyclase (sGC); endogenous in cells; host or cells: HEK293
T2 sequence (Q02153 1-619): T1 sequence (Q02153 1-619)
T2 sequence (Q02108 1-690): T1 sequence (Q02108 1-690)
Experimental: Biological Activity Measurement by the sGC-HEK-cGMP Assay
(Assay Run with SNP Incubation)
Human embryonic kidney cells (HEK293), endogenously expressing soluble guanylate cyclase (sGC), were used to evaluate the activity of test compounds. Compounds stimulating the sGC receptor should cause an increase in the intracellular concentration of cGMP. HEK 293 cells were seeded in Dulbecco's Modification of Eagle's Medium supplemented with fetal bovine serum (10% final) and L-glutamine (2 mM final) in a 2004 volume at a density of 1×10^5 cells/well in a poly-D-lysine coated 96 well flat bottom plate and grown overnight at 37° C. Medium was aspirated and cells were washed with 1× Hank's Buffered Saline Salt Solution (2004). Cells were then incubated for 15 minutes at 37° C. with 0.5 mM 3-isobutyl-1-methylxanthine (2004). Test article and sodium nitroprusside were then added to the assay mixture (24 each) and incubated at 37° C. for 10 minutes. After the 10 minute incubation, the assay mixture was aspirated and 0.1M HCl (2004) was added to the cells. The plate was incubated at 4° C. for 30 minutes in the 0.1M HCl to stop the reaction and lysed the cells. The plates were then centrifuged at 1,200 g for 5 minutes at room temperature. Supernatants were collected and transferred to a new flat bottom 96 well plate for analysis. Vehicle controls were carried out using DMSO (1%). A known sGC stimulator, BAY 41-2272, was used as the positive control. Samples were diluted with an equal volume of 1 M Ammonium Acetate (pH 7) to neutralize samples for better chromatography. A 2×cGMP standard curve was prepared in 0.1 M HCl and then diluted with an equal volume of 1 M Ammonium Acetate, with the following final concentrations in nM: 1024, 512, 256, 128, 64, 32, 16, 8, 4, 2, 1.cGMP concentrations were determined from each sample using the LC/MS conditions (Table 2 below) and calculated standard curve. EC50 values were calculated from concentration-response curves generated with GraphPad Prism Software.

[4] = Table 3E, read-out: HEK assay EC50
[5] = top of concentration-response curve not fitted to 100%, Table 3E, read-out: HEK assay EC50-unconstrained
[6] = Table 3A, top of concentration-response curve not fitted to 100%
[7] = Table 3D, read-out: HEK assay EC50
[8] = top of concentration-response curve not fitted to 100%, Table 3D, read-out: HEK assay EC50-unconstrained
[9] = Table 3C, top of concentration-response curve not fitted to 100%
[10] = Table 3F, read-out: HEK assay EC50
[11] = top of concentration-response curve not fitted to 100%, Table 3F, read-out: HEK assay EC50-unconstrained

Row | Structure (SMILES) | Emax [3, 6] | HEK MEC-10 ([3]; Table 3D) | EC50 [3, 7] | EC50 [3, 8] | also measured
1 | Fc1ncccc1Cn1nc(-c2ncccn2)cc1-c1ccon1 [Compound 66] | – | – | – | – | Enzyme Activity (increase at 30 μM with SNP) [1]: A (no increase to <2 fold increase); Enzyme Activity (increase at 30 μM without SNP) [2]: A (no increase to <2 fold increase)
2 | Fc1cccnc1Cn1nc(-c2ncccn2)cc1-c1ccon1 [Compound 57] | – | – | – | – | Enzyme Activity (increase at 30 μM with SNP) [1]: A (no increase to <2 fold increase); Enzyme Activity (increase at 30 μM without SNP) [2]: A (no increase to <2 fold increase)
3 | Oc1nc(-c2cc(-c3ccon3)n(Cc3cccc(Cl)c3F)n2)ncc1Cl [Compound 82] | – | – | – | – | Emax ([3]; Table 3B, top of concentration-response curve not fitted to 100%): 40 to 60%; HEK MEC-10 ([3]; Table 3E): B (0.01 to <0.1 μM); EC50 [3, 4]: 40 to 60 µM; EC50 [3, 5]: 0.01 to 0.5 µM
4 | Nc1nc(-c2cc(-c3ccon3)n(Cc3ccccc3F)n2)ncc1NC(=O)CCC(F)(F)F [Compound 111] | – | – | – | – | Emax [3, 9]: 60 to 80%; HEK MEC-10 ([3]; Table 3F): B (0.01 to <0.1 μM); EC50 [3, 10]: < 20 µM; EC50 [3, 11]: 0.01 to 0.5 µM
5 | COc1ccc(C2(C(=O)Nc3cnc(-c4cc(-c5ccon5)n(Cc5ccccc5F)n4)nc3N)CC2)cc1 [Compound 12] | 60 to 80% | B (0.01 to <0.1 μM) | < 20 µM | 0.01 to 0.5 µM | –
6 | Oc1nc(-c2cc(-c3ccon3)n(Cc3ccccc3F)n2)ncc1Sc1ccc(Cl)cc1 [Compound 6, 5-(4-chlorophenylthio)-2-(1-(2-fluorobenzyl)-5-(isoxazol-3-yl)-1H-pyrazol-3-yl)pyrimidin-4-ol] | 60 to 80% | C (0.1 to <1 μM) | < 20 µM | 1 to 5 µM | –
7 | Nc1nc(-c2cc(-c3ccon3)n(Cc3ccccc3F)n2)ncc1N1CC(C(F)(F)F)OC1=O (centres unmarked) [Compound 83, 3-(4-amino-2-(1-(2-fluorobenzyl)-5-(isoxazol-3-yl)-1H-pyrazol-3-yl)pyrimidin-5-yl)-5-(trifluoromethyl)oxazolidin-2-one] | – | – | – | – | EC50 [3, 4]: 60 to 100 µM; EC50 [3, 5]: 0.5 to 1 µM
8 | Nc1nc(-c2cc(-c3ccon3)n(Cc3cccc(F)c3F)n2)ncc1NC(=O)c1cc[nH]c1 [Compound 105] | – | – | – | – | Emax [3, 9]: 60 to 80%; HEK MEC-10 ([3]; Table 3F): B (0.01 to <0.1 μM); EC50 [3, 10]: < 20 µM; EC50 [3, 11]: 0.5 to 1 µM
9 | CC1(C(=O)Oc2cnc(-c3cc(-c4ccon4)n(Cc4ccccc4F)n3)nc2N)CC1 [Compound 5] | 80 to 100% | C (0.1 to <1 μM) | < 20 µM | 10 to 50 µM | –
10 | Nc1nc(-c2cc(-c3ccon3)n(Cc3cccc(F)c3F)n2)ncc1NC(=O)c1ccn[nH]1 [Compound 106] | – | – | – | – | Emax [3, 9]: 80 to 100%; HEK MEC-10 ([3]; Table 3F): D (1 to <10 μM); EC50 [3, 10]: < 20 µM; EC50 [3, 11]: 5 to 10 µM
11 | CN(C)Cc1cccc(C(=O)Nc2cnc(-c3cc(-c4ccon4)n(Cc4cccc(F)c4F)n3)nc2N)c1 [Compound 104] | – | – | – | – | Emax [3, 9]: 40 to 60%; HEK MEC-10 ([3]; Table 3F): C (0.1 to <1 μM); EC50 [3, 10]: < 20 µM; EC50 [3, 11]: 1 to 5 µM
12 | CN(c1ccccc1)S(=O)(=O)c1cnc(-c2cc(-c3ccon3)n(Cc3ccccc3F)n2)[nH]c1=O [Compound 25] | 60 to 80% | C (0.1 to <1 μM) | < 20 µM | 0.5 to 1 µM | –

More lines, main results first:

Row | Emax [3, 6] | HEK MEC-10 ([3]; Table 3D) | EC50 [3, 7] | EC50 [3, 8] | Structure (SMILES) | also measured
13 | 20 to 40% | D (1 to <10 μM) | 40 to 60 µM | 0.5 to 1 µM | O=c1[nH]c(-c2cc(-c3ccon3)n(Cc3c(F)ccc(F)c3F)n2)ncc1F [Compound 19, 5-fluoro-2-(5-(isoxazol-3-yl)-1-(2,3,6-trifluorobenzyl)-1H-pyrazol-3-yl)pyrimidin-4-ol] | –
14 | 60 to 80% | B (0.01 to <0.1 μM) | < 20 µM | 0.01 to 0.5 µM | Nc1nc(-c2cc(-c3ccon3)n(Cc3ccccc3F)n2)ncc1NC(=O)C1(c2ccccc2F)CC1 [Compound 9] | –
15 | 60 to 80% | C (0.1 to <1 μM) | < 20 µM | 1 to 5 µM | Oc1nc(-c2cc(-c3cocn3)n(Cc3ccccc3F)n2)ncc1F [Compound 48] | –
16 | 80 to 100% | C (0.1 to <1 μM) | 20 to 40 µM | 10 to 50 µM | Nc1ccnc(-c2cc(-c3ccon3)n(Cc3cccc(F)c3F)n2)n1 [Compound 37] | –
17 | – | E (10 to 50 μM) | – | – | Fc1cnccc1Cn1nc(-c2ncccn2)cc1-c1ccon1 [Compound 23] | –
